# Legend:
# HeLa cells = assay: H2O2-induced oxidative stress in cells, DCF-DA cytofluorimetry; type: cell-based, human; conditions: incubation for 1 to 5 hours
# Procedure: To measure the level of oxidative stress stimulated by H2O2, cells were stained with fluorescent dye DCF-DA (2′,7′-dichloro-dihydrofluorescein diacetate), and the level of fluorescence of the dye was measured with a cytofluorimeter.
# Estimates were made on the basis of seven experiments. Data were estimated with respect to a group of the control cells lying on the diagram in the area of low DCF-DA fluorescence (50% of the population), this group of cells was taken as 100% and indicators for every action were estimated relative to this group.
# [1] = Penetrating ability on artificial black (bilayer phospholipid) membranes, membrane potential; type: physicochemical; conditions: for penetrating ability: bilayer membrane, comparison between compounds; for membrane potential (Δψ) generated: concentration range from 10^−7 to 10^−6 M, FIG. 2B
# Text: To test the penetrating ability of mitochondria-addressed compounds of structure (I), a method is used based on the ability of ions to penetrate through the phospholipid membrane bilayer moving along the concentration gradient. […] If a charged substance can penetrate through the bilayer membrane, its rapid diffusion out of the chamber having a high concentration of the substance, to the chamber having a low concentration of the substance, occurs, and thus a membrane potential difference is created. For ions which are carrying one charge and able to easily penetrate through the membrane, a 10-fold concentration gradient allows for creation of a potential of 60 mV (according to the Nernst equation). This method was used in various studies of the ability of ions to pass through the lipid bilayer of the membrane.
# gramicidin channels [2] = assay: Protection of gramicidin channels in bilayer membrane, damage by FeSO4, ascorbate and tert-butyl hydroperoxide; type: biochemical; conditions: FeSO4, ascorbate, tert-butyl hydroperoxide; FIG. 3B
# Text: A method was developed which allows the study of the antioxidant activity of compounds in a simple system consisting of a bilayer membrane, […]). […]
# [3] = tested on: HeLa and normal human diploid fibroblasts; assay: Protection of cells against H2O2-induced death (apoptosis), Hoechst/PI counting; type: cell-based; conditions: incubation with the cells for 5 to 7 days
# Procedure: Testing of the antioxidant capacity of the compounds was performed using the methods of cytofluometry and fluorescence microscopy.
# In preliminary experiments for each cell culture, the optimal concentration of H2O2 which causes significant (60% to 80%) cell apoptosis with no visible signs of necrosis was selected. To determine the chromatin condensation and fragmentation which occurs in apoptotic cells, the fluorescent dye Hoechst was used. The dye at a concentration of 1 μg/ml was added to live or fixed cells at the end of a 30 min incubation. To determine necrosis, the fluorescent dye propidium iodide (PI) at a concentration of 2 μg/ml was added to non-fixed cells. The percentage of apoptotic and necrotic cells was determined by counting the number of cells with fragmented nuclei and cells permeable to propidium iodide, respectively.
# [4] = Solubility in aqueous solutions
# gramicidin channels [5] = assay: Protection of gramicidin channels in bilayer membrane, damage by photoactivated phthalocyanine; type: biochemical; conditions: photoactivation of phthalocyanine; FIG. 3A
# Text: A method was developed which allows the study of the antioxidant activity of compounds in a simple system consisting of a bilayer membrane, a conducting protein gramicidin and a photosensitizer (Mito Tracker Red, Invitrogen, Carlsbad, Calif.), thrice sulfonated aluminum phthalocyanine or zinc phthalocyanine). The method uses the ability of reactive oxygen species generated by photoactivation of the photosensitizer molecules to damage gramicidin channels, resulting in a sharp decrease in the conducting ability of the bilayer membrane.
# mitochondria = assay: Accumulation in mitochondria measured with tetraphenylphosphonium-selective electrode; type: in vitro ADME; conditions: FCCP uncoupler; FIG. 4
# Procedure: The ability of compounds of general formula (I) to accumulate in mitochondria was tested using a tetraphenylphosphonium-selective electrode. The method is used for compounds of general formula (I) in which the lipophilic cation tetraphenylphosphonium is used as the target group. With this electrode, it is possible to measure distribution of tetraphenylphosphonium cation (or compounds which comprise this cation) between the mitochondrial matrix and the medium.
# [6] = tested on: E. coli MG1655 pLUX::PkatG
# Text: (§1) To test pro-oxidant and antioxidant properties of mitochondria-addressed compounds of general formula (I), a method for determining oxidative stress in E. coli cells was developed. For this purpose, a biosensor system was created based on luxAB genes encoding bacterial luciferases to study effect of penetrating ions on oxidative stress in a bacterial cell.
# The lux-biosensors were developed on the basis of these inducible promoters.
# (§2) All the promoters used in the method, with corresponding regulatory regions, were obtained from the genome of the E. coli K12 MG1655 bacteria by the PCR method with the use of specific synthesized primers. A non-promoter vector with the pBR322 replicon and bla gene responsible for resistance to ampicillin (selective marker) was used as a vector. The promoter region was embedded into the plasmid at the EcoRI-BamHI sites. The lux operon of Ph. luminescens consisting of five genes, luxCDABE, was selected as the lux cassette.
# (§3) In the first phase of testing, conditions for oxidative stress induction at which the maximum induction of luminescence occurs, were selected.
# [7] = tested on: E. coli MG1655 pLUX::PsoxS; type: cell-based
# Text: as §1
# The PsoxS promoter is activated when superoxide ion-radical appears in the environment. The lux-biosensors were developed on the basis of these inducible promoters.
# as §2, §3
compound,measurement,setting,value
COC1=C(OC)C(=O)C(CCCCCCCCCC[P+](c2ccccc2)(c2ccccc2)c2ccccc2)=C(C)C1=O [MitoQ],effect on H2O2-induced oxidative stress in cells,HeLa cells,did not prevent
same,penetrating ability,[1],less penetrating abilities compared to SkQ3 or SkQR1
same,"antioxidant efficiency, protection of gramicidin channels",gramicidin channels [2],less efficient antioxidants
same,resistance of cells to H2O2,[3],increase resistance of cells to H2O2
"COc1ccc2c(CC(=O)OCCCCCCCC3=CC(=O)C(C)=C(C)C3=O)c3[n+](cc2c1OC)CCc1cc2c(cc1-3)OCO2 [SkQB1, 13-[7-(4,5-dimethyl-3,6-dioxo-cyclohexa-1,4-dien-1-yl)heptyloxycarbonyl-methyl]berberine]",membrane potential (Δψ) generated,[1],almost the same Δψ as SkQ1
same,solubility in aqueous solutions,[4],poor solubility
CC/N=c1/cc2oc3cc(NCC)c(C)cc3c(-c3ccccc3C(=O)OCCCCCCCCCCC3=CC(=O)C(C)=C(C)C3=O)c-2cc1C [SkQR1],effect on H2O2-induced oxidative stress in cells,HeLa cells,has antioxidant activity
same,concentration above which compound ceases to obey the Nernst equation (membrane damage),[1]; FIG. 2A,higher than 5×10^−5 M
same,penetrating ability,[1],higher penetrating ability
superoxide dismutase,prevention of fall in membrane conductance (gramicidin channels),gramicidin channels [5],effectively blocked
"COc1cc2c(cc1OC)-c1c(CC(=O)OCCCCCCCC3=CC(=O)C(C)=C(C)C3=O)c3ccc(OC)c(OC)c3c[n+]1CC2 [SkQBP1, 13-[7-(4,5-dimethyl-3,6-dioxo-cyclohexa-1,4-dien-1-yl)heptyloxycarbonyl-methyl]palmatine]",membrane potential (Δψ) generated,[1],almost the same Δψ as SkQ1
CC1=C(C)C(=O)C(CCCCCCCCCC[P+](c2ccccc2)(c2ccccc2)c2ccccc2)=C(C)C1=O [SkQ3],"antioxidant efficiency, protection of gramicidin channels",gramicidin channels [2],less efficient antioxidants
CC1=C(C)C(=O)C(CCCCC[P+](c2ccccc2)(c2ccccc2)c2ccccc2)=CC1=O [SkQ5],energy-independent accumulation in mitochondria,mitochondria,reduced
"OO [Compound H2O2, hydrogen peroxide]",time at which induction of luminescence becomes evident,[6]; FIG. 10A,≤ 15 min
same,time to maximum luminescence,[6]; FIG. 10A,one hour
same,ratio of luminescence intensity between control cells and induced cells,[6]; optimal concentrations of H2O2,1/80
C[n+]1ccc(-c2cc[n+](C)cc2)cc1 [paraquat],time at which induction of luminescence becomes evident,[7]; FIG. 10B,15 to 20 min
same,time to maximum luminescence,[7]; FIG. 10B,two hours
same,ratio of luminescence intensity between control cells and induced cells,[7]; optimal concentrations of paraquat,1/100
"CC1=C(C)C(=O)C(CCCCCCCCCC[P+](c2ccccc2)(c2ccccc2)c2ccccc2)=CC1=O [SkQ1, [10-(4,5-dimethyl-3,6-dioxo-cyclohexa-1,4-dien-1-yl)decyl]-triphenylphosphonium bromide]",energy-independent accumulation in mitochondria,mitochondria,independent of the degree of energization of the mitochondria
